Assay results from patent US20250049757A1, “COMBINATORY THERAPY FOR CANCER USING BIPHENYL COMPOUND AND IMMUNE CHECKPOINT MOLECULE REGULATOR” (Taiho Pharmaceutical Co. Ltd., priority 2021, published 2025).

Assays:
Type in all cases: in vivo
[1] = tested on: mouse colon cancer cell strain MC38; experiment: Flow cytometric analysis of tumor infiltrating leucocytes in MC38 transplanted mice (Example 1); settings: Day 7, tumor infiltrating leucocytes, Compound A 25 mg/kg/day po 6 days, Dunnett test
Description: The mouse colon cancer cell strain MC38 was obtained from Dr. Yoshihiro Hayakawa (University of Toyama, Toyama, Japan). The MC38 cell strain was subjected to culture in an RPMI 1640 medium containing 10% fetal bovine serum and then to subculture in an incubator at 37° C. in the presence of 5% CO2 at a frequency of once or twice a week.
The MC38 cell suspension was transplanted subcutaneously at 1.5×10^6 cells/0.1 ml to the right chest of 6-week-old C57BL/6JJcl mice (CLEA Japan, Inc.).
The tumor was grown until reaching a tumor volume (TV) of 80 to 230 mm^3 after the transplantation. Degimatic Caliper was used for tumor diameter measurement. The major diameter and the minor diameter of the tumor were measured, and TV was calculated from the following equation.
(§1) TV (mm^3)=major diameter (mm)×minor diameter (mm)×minor diameter (mm)/2
By a stratified random allocation method using TV as an index, 5 animals were allocated to each group. The day when grouping (n=5) was performed was defined as Day 0. […]
For detecting expression of immunity-related factors, flow cytometric analysis was performed for immunological monitoring. […] Thereafter, the isolated lymphocytes were stained with antibodies below, and then, analyzed using Flow Cytometer FACSVerse (BD Bioscience). […]

[2] = tested on: mouse colon cancer cell line MC38; experiment: Antitumor effect in MC38 transplanted wild type (immune proficient) C57BL/6JJcl mice (Example 2)
Description: (§2) The MC38 cell suspension was transplanted subcutaneously at 2.0×10^6 cells/0.1 ml to the right chest of 6-week-old C57BL/6JJcl mice (CLEA Japan, Inc.) or CB17/Icr-Prkdc[scid]/CrlCrlj (Charles River Laboratories Japan Inc.). CB17/Icr-Prkdc[scid]/CrlCrlj mice are mice with immune deficiency due to lack of Tcells and B-cells in the peripheral blood.
(§3) The tumor was grown until reaching a TV of 50 to 300 mm^3 after the transplantation. Degimatic Caliper was used for tumor diameter measurement. The major diameter and the minor diameter of the tumor were measured, and TV was calculated from the following equation.
as §1
(§4) By a stratified random allocation method using TV as an index, ten C57BL/6JJcl mice were allocated to each group, and five CB17/Icr-Prkdc [scid]/CrlCrlj mice were allocated to each group. The day when grouping was performed was defined as Day 0. An electronic balance for animals was used for body weight measurement. The body weight change ratio on the nth day (BWCn) was calculated from the body weight on the nth day (BWn) in accordance with the following equation.
(§5) Body weight change ratio BWCn (%)=(BWn−BW0)/BW0×100
(§6) An appropriate amount of water for injection described in the Japanese Pharmacopeia was added for adjusting hypromellose concentration to 0.5 w/v %, and the mixture was then stirred with a stirrer to completely dissolve hypromellose, to prepare a 0.5% aqueous hypromellose solution. Benzoic acid salt of Compound A was ground with an agate mortar, and then suspended to a predetermined concentration with the 0.5% aqueous hypromellose solution, and ultrasonic treatment was performed to obtain a homogeneous suspension. The suspension containing Compound A was orally administered once a day for 21 consecutive days at a dose of 25 mg/kg/day. The dosage is indicated based on the free form of the Compound A.

[3] = tested on: mouse colon cancer cell line MC38; experiment: Antitumor effect in MC38 transplanted immune deficient CB17/Icr-Prkdc[scid]/CrlCrlj mice (Example 2)
Description: as §2, §3, §1, §4, §5, §6

[4] = tested on: mouse colon cancer cell line MC38; experiment: Combination of Compound A and anti-mouse PD-1 antibody in MC38 transplanted wild type C57BL/6JJcl mice (Example 3); settings: Aspin-Welch's t-test
Description: The MC38 cell suspension was transplanted subcutaneously at 2.0×10^6 cells/0.1 ml to the right chest of 6-week-old C57BL/6JJcl mice (CLEA Japan, Inc.).
as §3, §1
By a stratified random allocation method using TV as an index, 10 mice were allocated to each group. The day when grouping was performed was defined as Day 0.
An electronic balance for animals was used for body weight measurement. The body weight change ratio on the nth day (BWCn) was calculated from the body weight on the nth day (BWn) in accordance with the following equation.
as §5
An appropriate amount of water for injection described in the Japanese Pharmacopeia was added for adjusting hypromellose concentration to 0.5 w/v %, and the mixture was then stirred with a stirrer to completely dissolve hypromellose, to prepare a 0.5% aqueous hypromellose solution.
On the first day of administration (day 1), the diluted product was intraperitoneally administered with the dose of 0.05 mg/body of the anti-mouse PD-1 antibody.

[5] = wild type C57BL/6JJcl mice, 25.0 mg/kg/day qd Day 1-21 po
[6] = immune deficient CB17/Icr-Prkdc[scid]/CrlCrlj mice, 25.0 mg/kg/day qd Day 1-21 po

## CC(C)(O)Cc1ccc(-c2ccc(C(=O)N3CC[C@H](N)C3)cc2-c2ccc(C#N)c(F)c2)c(F)c1 [Compound A, 4-[5-[(3S)-3-aminopyrrolidine-1-carbonyl]-2-[2-fluoro-4-(2-hydroxy-2-methyl-propyl)phenyl]phenyl]-2-fluoro-benzonitrile]
[1]
  ratio of gMDSC (CD45 positive, CD90.2 negative, CD11b positive, Ly6G positive cells) in leucocytes as compared to the control group: significantly lower
[2]; [5]
  Body weight change Day 22 Mean ± SE: 2.6 ± 1.2%
  Tumor volume Day 22 Mean ± SE: 969.3 ± 114.7 mm^3
[2]; wild type mice, Aspin-Welch's t-test
  antitumor effect: TV on Day 22 as compared to the control group: significantly lower TV
[3]; [6]
  Body weight change Day 22 Mean ± SE: 9.2 ± 4.2%
  Tumor volume Day 22 Mean ± SE: 2431.6 ± 359.7 mm^3
[3]; immune deficient mice, Aspin-Welch's t-test
  antitumor effect: TV on Day 22 as compared to the control group: didn't exhibit any antitumor effect
[4]
  antitumor effect: TV on Day 22 as compared to the control group: significantly lower TV
